Experimental data published in PMC9950431, “A bivalent remipede toxin promotes calcium release via ryanodine receptor activation” (Nature Communications, 2023).

Key:
[1] = test system: sarcoplasmic reticulum (SR) in mouse extensor digitorum longus (EDL) fibers; assay: SR Ca2+ leak in mechanically-skinned EDL muscle fibers (total SR Ca2+ content, [CaT]SR, after 1 min leak); assay type: cell-based, mouse (C57/Bl6)
From the text: All experiments were approved by The University of Queensland Animal Ethics Committees. Male and female C57/Bl6 2–6-month-old mice were sacrificed by asphyxiation via CO2 exposure and the EDL muscles were rapidly excised. The EDL was pinned at resting length in a petri dish lined with Sylgard 184 (Dow Corning, Midland, MI) and immersed in paraffin oil (Ajax Chemicals, Sydney, Australia). Segments of individual fibers were mechanically skinned using jeweler’s forceps and pinned out unstretched under oil[37]–[39]. The skinned fiber was then mounted at 120% of resting length on a force transducer (Myotronic UG, Heidelberg, Germany) before transfer to a 2-ml Perspex bath containing standard K^+-based solution that broadly mimics the intracellular milieu. […] All chemicals were purchased from Sigma-Aldrich (St Louis, MO, USA) unless specified otherwise.
Variations of the standard solution were prepared. To deplete the caffeine releasable Ca^2+ (“full release solution”), 30 mM caffeine was added, [Mg^2+] was lowered to 0.05 mM (total Mg^2+ of 2.1 mM) and free EGTA was adjusted to 0.5 mM (pCa 8.5) to chelate released Ca^2+. To measure the maximum force produced by the skinned fiber, all HDTA was replaced by EGTA (relaxing solution) or CaEGTA (maximum Ca^2+ activating solution). The relaxing solution contained 50 mM EGTA and no added Ca^2+ (pCa > 9) and the maximum Ca^2+-activating solution contained 49.5 mM Ca^2+ (pCa 4.7), with total Mg^2+ of 10.3 and 8.1 mM, respectively, to maintain the free [Mg^2+] at 1 mM. A “leak solution” was also prepared, where [Mg^2+] set at 0.1 mM (total Mg^2+ of 3.4 mM) to increase the PO of RyR and with 2 mM EGTA (pCa ~8.5) to chelate leaky Ca^2+ from the SR. […] The BAPTA solution used to pre-equilibrate fibers before lysing was similar to the standard K-HDTA solution but EGTA was replaced with 0.1–1.6 mM BAPTA[37],[39].
The skinned fiber was then equilibrated for 20 s in a solution with a set [BAPTA] before being placed in a freshly triturated emulsion of Triton X-100 in paraffin oil (TX–oil) (10% v/v). The Ca^2+ released upon the membrane lysing rapidly binds to the known amount of BAPTA present within the fiber and to other sites, predominantly troponin C (TnC). The pre-equilibrating [BAPTA] was chosen such that the fiber produced a finite, non-maximal force response upon lysis. Pre-treatment of the fiber with “full release solution” allowed the non-SR Ca^2+ content of the skinned fiber to be assayed. The total amount of Ca^2+ present in the fiber could be calculated from the [BAPTA] in the equilibration solution and the magnitude of the force response. Data are presented as mean ± SD, with n denoting the number of fibers examined. Statistical significance (p < 0.05) was determined with One-way ANOVA.

[2] = test system: NaV1.7; assay: FLIPR Ca2+ assay, inhibition of endogenous NaV1.7; assay type: cell-based, human; conditions: for Ca2+ response relative to control response: 3 µM Xt3a pre-treatment, veratridine 4 μM/OD1 300 nM, over 300 s
Experimental: (§1) SH-SY5Y human neuroblastoma cells (European Collection of Authenticated Cell Culture, Sigma Aldrich, 94030304-1VL) were cultured in RPMI media (ThermoFisher Scientific, Scoresby, Australia) supplemented with 15% foetal bovine serum and L-glutamine (1 mM) and passaged at approximately 80% confluency with TrypLE Express (Thermo Fisher, Australia). For fluorescence imaging, cells were plated on CellBIND (Corning) 384-well black-walled imaging plates at a density of 20,000–30,000 cells/well in complete media and cultured for 48 h at 37 °C/5% CO2.
(§2) Briefly, SH-SY5Y cells were loaded with Calcium 4 no-wash dye (Molecular Devices) diluted in physiological salt solution (composition in mM: NaCl 140, D-glucose 11.5, KCl 5.9, MgCl2 1.4, NaH2PO4 1.2, NaHCO3 5, CaCl2 1.8, HEPES 10) for 30 min at 37 °C. A two-addition FLIPR^Tetra (Molecular Devices) protocol using the following settings was used to measure fluorescence responses: excitation 470–495 nm; emission 515–575 nm; excitation intensity 80%; excitation duration 0.8 s; gain 140; read interval 1/s; read number 300/addition. Responses mediated via endogenously expressed ion channels were elicited by addition of: choline (30 μM)/PNU-120596 (10 μM) for α7 nAChR-mediated responses; nicotine (30 μM) for α3β2/α3β4 nAChR-mediated responses; KCl (90 mM)/CaCl2 (5 mM) for CaV1.3-mediated responses; KCl (90 mM)/CaCl2 (5 mM) + nifedipine (10 μM) for CaV2.2-mediated responses; vertridine (70 μM) for NaV1.2-mediated responses; and veratridine (4 μM)/OD1 (300 nM) for NaV1.7-mediated responses. Raw fluorescence readings were converted to response over baseline using the analysis tool Screenworks 3.1.1.4 (Molecular Devices) and were expressed relative to the maximum increase in fluorescence of control responses and plotted using GraphPad Prism 9.3.1.
(§3) In the cell-based FLIPR assays statistical analysis was performed using GraphPad Prism 9.3.1. Statistical significance was defined as p < 0.05, and determined by one-sample t-test assessing difference to the control value of 100%. In α7 nAChR, α3-containing nAChR, CaV1.3, CaV2.2, NaV1.2 and NaV1.7 channels (Supplementary Fig. 5B), with distribution (t) and degrees of freedom (df) being: t = 0.9683, df = 2 (α7); t = 1.338, df = 2 (α3); t = 1.775, df = 2 (NaV1.2); t = 1.478

[3] = test system: CaV2.2; assay: FLIPR Ca2+ assay, inhibition of endogenous CaV2.2; assay type: cell-based, human; conditions: for Ca2+ response relative to control response: 3 µM Xt3a pre-treatment, KCl 90 mM/CaCl2 5 mM + nifedipine 10 μM, over 300 s
Experimental: as §1, §2, §3

[4] = test system: CaV1.3; assay: FLIPR Ca2+ assay, inhibition of endogenous CaV1.3; assay type: cell-based, human; conditions: for Ca2+ response relative to control response: 3 µM Xt3a pre-treatment, KCl 90 mM/CaCl2 5 mM, over 300 s
Experimental: as §1, §2, §3

φ-Xibalbin3-Xt3a was tested, and the “efficiency to increase SR Ca2+ leakage (order)” value ([1]; 10 nM) was “Xt3a > Xt3a-D1 ~ IpTxA > Xt3a-D2”, the “depletion of [CaT]SR” value ([1]; 10 nM peptide in leak solution, 1 min leak, mean ± SD, control leak 18 ± 7%) was 76 ± 5% and the “Relative amount of total Ca2+ left in the SR ([CaT]SR)” value ([1]; 10 nM peptide, 1 min leak, relative to Pre, fiber 2 of column) was 20.6. The “Relative amount of total Ca2+ left in the SR ([CaT]SR)” value ([1]; 10 nM peptide, 1 min leak, relative to Pre, fiber 3 of column) was 24.9, the “Relative amount of total Ca2+ left in the SR ([CaT]SR)” value ([1]; 10 nM peptide, 1 min leak, relative to Pre, fiber 4 of column) was 22.9 and the “Relative amount of total Ca2+ left in the SR ([CaT]SR)” value ([1]; 10 nM peptide, 1 min leak, relative to Pre, fiber 5 of column) was 23.5. For the same substance, the “Relative amount of total Ca2+ left in the SR ([CaT]SR)” value ([1]; 10 nM peptide, 1 min leak, relative to Pre, fiber 6 of column) was 22.7, the “Relative amount of total Ca2+ left in the SR ([CaT]SR)” value ([1]; 10 nM peptide, 1 min leak, relative to Pre, fiber 7 of column) was 27.4 and the “Relative amount of total Ca2+ left in the SR ([CaT]SR)” value ([1]; 10 nM peptide, 1 min leak, relative to Pre, fiber 8 of column) was 27.5. The “Relative amount of total Ca2+ left in the SR ([CaT]SR)” value ([1]; 10 nM peptide, 1 min leak, relative to Pre, fiber 9 of column) was 25.7, the “Relative amount of total Ca2+ left in the SR ([CaT]SR)” value ([1]; 10 nM peptide, 1 min leak, relative to Pre, fiber 10 of column) was 30.9 and the “Relative amount of total Ca2+ left in the SR ([CaT]SR)” value ([1]; 10 nM peptide, 1 min leak, relative to Pre, fiber 11 of column) was 32.9. For the same substance, the “Relative amount of total Ca2+ left in the SR ([CaT]SR)” value ([1]; 10 nM peptide, 1 min leak, relative to Pre, fiber 12 of column) was 22.4, the “Relative amount of total Ca2+ left in the SR ([CaT]SR)” value ([1]; 10 nM peptide, 1 min leak, relative to Pre, fiber 13 of column) was 13.3 and the “Relative amount of total Ca2+ left in the SR ([CaT]SR), mean” value ([1]; 10 nM peptide, 1 min leak, relative to Pre, mean (n = 13 Xt3a, n = 10 others)) was 24.4. The “Relative amount of total Ca2+ left in the SR ([CaT]SR)” value ([1]; 10 nM peptide, 1 min leak, relative to [CaT]SR before the leak (Pre), fiber 1 of column) was 21.9, the “Ca2+ response relative to control response” value ([2]; replicate 1) was 99.4493% and the “Ca2+ response relative to control response” value ([2]; replicate 2) was 100.583%. The “Ca2+ response relative to control response” value ([2]; replicate 3) was 102.164%, the “inhibition of Ca2+ responses” value ([2]; Xt3a 3 µM) was “did not inhibit Ca^2+ responses” and the “Ca2+ response relative to control response” value ([3]; replicate 1) was 99.2207%. The “Ca2+ response relative to control response” value ([3]; replicate 2) was 92.2928%, the “Ca2+ response relative to control response” value ([3]; replicate 3) was 79.9392% and the “inhibition of Ca2+ responses” value ([3]; Xt3a 3 µM) was “did not inhibit Ca^2+ responses”. The “Ca2+ response relative to control response” value ([4]; replicate 1) was 100.265%, the “Ca2+ response relative to control response” value ([4]; replicate 2) was 98.0302% and the “Ca2+ response relative to control response” value ([4]; replicate 3) was 95.1795%. For the same substance, the “inhibition of Ca2+ responses” value ([4]; Xt3a 3 µM) was “did not inhibit Ca^2+ responses”.
